Data from patent US20140155384A1, “COMPOUNDS AND METHODS OF TREATING DIABETES” (Medivation Technologies, Inc., priority 2011, published 2014).

Experiments:
[1] = biological target: T1, human recombinant adrenergic α2B receptor (Homo sapiens, UniProt P18089); test: Radioligand binding, adrenergic α2B receptor ([3H]Rauwolscine); details: 0.1 μM compound, CHO-K1 cells, read-out: Percentage inhibition of ligand binding, Adrenergic α2B
T1 construct: expressed in transfected cells; host or cells: CHO-K1
T1 sequence (P18089 1-450): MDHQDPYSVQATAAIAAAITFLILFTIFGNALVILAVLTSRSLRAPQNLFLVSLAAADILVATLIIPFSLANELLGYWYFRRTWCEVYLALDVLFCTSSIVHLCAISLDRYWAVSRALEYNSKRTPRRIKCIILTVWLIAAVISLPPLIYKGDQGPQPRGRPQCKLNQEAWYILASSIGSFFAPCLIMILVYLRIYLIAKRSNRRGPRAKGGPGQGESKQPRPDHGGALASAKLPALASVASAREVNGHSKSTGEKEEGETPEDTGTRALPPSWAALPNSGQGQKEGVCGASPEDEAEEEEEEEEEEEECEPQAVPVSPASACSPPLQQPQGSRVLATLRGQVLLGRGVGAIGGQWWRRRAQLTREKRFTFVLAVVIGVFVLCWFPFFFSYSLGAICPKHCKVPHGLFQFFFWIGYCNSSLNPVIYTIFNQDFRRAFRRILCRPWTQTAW
Summary of the method: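 Percent inhibition of specific [3H]Rauwolscine (2.5 nM) binding, compounds at ≤1 μM, 1% DMSO vehicle, 10 μM prazosin defining nonspecific. Receptor: human α2B expressed in CHO-K1 cells, 60 min incubation at 25 °C in Tris-HCl pH 7.4 buffer (MgCl2, EDTA, BSA); filtered, washed, counted.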

[2] = biological target: T2, human recombinant adrenergic α2A receptor (Homo sapiens, UniProt P08913); test: Radioligand binding, adrenergic α2A receptor ([3H]MK-912); details: 0.1 μM compound; Sf9 cells; 1 nM [3H]MK-912; read-out: Percentage inhibition of ligand binding, Adrenergic α2A
T2 construct: expressed in transfected cells; host or cells: insect Sf9 cells
T2 sequence (P08913 1-465): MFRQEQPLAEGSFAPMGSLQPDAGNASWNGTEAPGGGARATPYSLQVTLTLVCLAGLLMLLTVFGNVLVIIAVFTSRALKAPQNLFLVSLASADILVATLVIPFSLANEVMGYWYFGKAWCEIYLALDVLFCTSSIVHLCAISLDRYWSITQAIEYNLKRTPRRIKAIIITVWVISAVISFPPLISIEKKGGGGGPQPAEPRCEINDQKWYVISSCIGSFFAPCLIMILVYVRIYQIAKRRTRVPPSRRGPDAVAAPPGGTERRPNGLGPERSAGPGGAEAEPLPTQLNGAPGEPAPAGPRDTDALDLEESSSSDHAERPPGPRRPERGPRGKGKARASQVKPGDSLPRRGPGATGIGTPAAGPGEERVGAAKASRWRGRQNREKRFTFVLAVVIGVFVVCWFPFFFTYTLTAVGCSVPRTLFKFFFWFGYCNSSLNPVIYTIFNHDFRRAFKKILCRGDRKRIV
Summary of the method: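 Percent inhibition of specific [3H]MK-912 (1 nM) binding measured by filtration counting, compounds tested at ≤1 μM in 1% DMSO. Receptor: human α2A from Sf9 cells; incubation 60 min, 25 °C, pH 7.4; 10 μM WB-4101 defined nonspecific binding.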

[3] = biological target: T3, human recombinant adrenergic α1D receptor (Homo sapiens, UniProt P25100); test: Radioligand binding, adrenergic α1D receptor ([3H]Prazosin); details: 0.1 μM compound; HEK-293 cells; 0.6 nM [3H]Prazosin; read-out: Percentage inhibition of ligand binding, Adrenergic α1D
T3 construct: expressed in transfected cells; host or cells: HEK-293
T3 sequence (P25100 1-572): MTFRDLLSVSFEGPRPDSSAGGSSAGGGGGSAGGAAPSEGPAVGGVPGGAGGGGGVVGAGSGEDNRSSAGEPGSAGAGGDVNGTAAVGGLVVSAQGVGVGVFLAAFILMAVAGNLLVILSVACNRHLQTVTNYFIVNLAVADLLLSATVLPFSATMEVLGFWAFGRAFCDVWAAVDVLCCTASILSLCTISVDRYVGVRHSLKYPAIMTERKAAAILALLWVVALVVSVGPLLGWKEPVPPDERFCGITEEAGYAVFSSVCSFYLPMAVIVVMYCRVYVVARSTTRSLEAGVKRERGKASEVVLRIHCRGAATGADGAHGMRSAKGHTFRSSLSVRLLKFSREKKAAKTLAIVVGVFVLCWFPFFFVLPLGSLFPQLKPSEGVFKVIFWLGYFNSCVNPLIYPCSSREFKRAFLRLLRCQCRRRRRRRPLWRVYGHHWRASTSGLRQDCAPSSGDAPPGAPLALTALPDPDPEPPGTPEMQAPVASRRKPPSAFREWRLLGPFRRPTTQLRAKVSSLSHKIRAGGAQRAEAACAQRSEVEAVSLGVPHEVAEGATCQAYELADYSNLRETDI
Protocol: Compounds were incubated with 0.6 nM [3H]Prazosin for 60 min at 25° C. Non-specific binding was estimated in the presence of 10 μM phentolamine. Receptor proteins were filtered and washed, the filters were then counted to determine [3H]Prazosin specifically bound. Compounds were screened at 1 μM or lower, using 1% DMSO as vehicle. Biochemical assay results are presented as the percent inhibition of specific binding in Table 2.

[4] = biological target: T4, rat adrenergic α1B receptor (Rattus norvegicus, UniProt P15823); test: Radioligand binding, adrenergic α1B receptor ([3H]Prazosin); details: 0.1 μM compound, Wistar rat liver, read-out: Percentage inhibition of ligand binding, Adrenergic α1B
T4 construct: rat adrenergic α1B receptor obtained from Wistar Rat liver; from tissue; host or cells: Wistar rat liver
T4 sequence (P15823 1-515): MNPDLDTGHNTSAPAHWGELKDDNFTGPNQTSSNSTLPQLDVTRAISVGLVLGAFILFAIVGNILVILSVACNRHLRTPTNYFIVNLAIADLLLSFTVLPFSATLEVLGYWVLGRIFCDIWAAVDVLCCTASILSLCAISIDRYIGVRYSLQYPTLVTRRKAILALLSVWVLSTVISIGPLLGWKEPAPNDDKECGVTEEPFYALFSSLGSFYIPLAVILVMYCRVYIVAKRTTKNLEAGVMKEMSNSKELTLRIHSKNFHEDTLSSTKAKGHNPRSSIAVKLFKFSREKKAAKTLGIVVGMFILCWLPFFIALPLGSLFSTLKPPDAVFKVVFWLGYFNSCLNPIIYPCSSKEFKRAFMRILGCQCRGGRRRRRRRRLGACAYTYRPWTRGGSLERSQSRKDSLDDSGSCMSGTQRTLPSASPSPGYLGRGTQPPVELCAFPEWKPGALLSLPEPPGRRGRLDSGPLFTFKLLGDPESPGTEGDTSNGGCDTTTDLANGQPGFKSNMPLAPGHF
Summary of the method: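 Wistar rat liver α1B receptor preparation incubated with 0.25 nM [3H]prazosin and compound for 60 min at 25° C in 50 mM Tris-HCl pH 7.4, 0.5 mM EDTA; nonspecific binding defined with 10 μM phentolamine.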

inhibition at 0.1 µM [1] | inhibition at 0.1 µM [2] | inhibition at 0.1 µM [3] | inhibition at 0.1 µM [4] | Compound
1% | 25% | -1% | 10% | Cc1ccc2c(c1)c1c(n2-c2cccc(-c3ccc(C)s3)c2)CCN(C)C1 [Compound No. 64, 2,8-dimethyl-5-(3-(5-methylthiophen-2-yl)phenyl)-2,3,4,5-tetrahydro-1H-pyrido[4,3-b]indole]
46% | 33% | 1% | 14% | Cc1ccc2c(c1)c1c(n2-c2cccc(-c3c(C)noc3C)c2)CCN(C)C1 [Compound No. 65, 4-(3-(2,8-dimethyl-3,4-dihydro-1H-pyrido[4,3-b]indol-5(2H)-yl)phenyl)-3,5-dimethylisoxazole]
18% | 39% | 11% | 13% | Cc1ccc2c(c1)c1c(n2-c2cccc(-c3ccnn3C)c2)CCN(C)C1 [Compound No. 66, 2,8-dimethyl-5-(3-(1-methyl-1H-pyrazol-5-yl)phenyl)-2,3,4,5-tetrahydro-1H-pyrido[4,3-b]indole]
13% | 39% | -1% | 2% | Cc1ccc2c(c1)c1c(n2-c2cccc(-c3cncc4ccccc34)c2)CCN(C)C1 [Compound No. 67, 5-(3-(isoquinolin-4-yl)phenyl)-2,8-dimethyl-2,3,4,5-tetrahydro-1H-pyrido[4,3-b]indole]
3% | 39% | 9% | 11% | Cc1ccc2c(c1)c1c(n2-c2cccc(-c3cccn3C)c2)CCN(C)C1 [Compound No. 69, 2,8-dimethyl-5-(3-(1-methyl-1H-pyrrol-2-yl)phenyl)-2,3,4,5-tetrahydro-1H-pyrido[4,3-b]indole]
19% | 34% | 9% | 18% | Cc1ccc2c(c1)c1c(n2-c2cccc(-c3cn[nH]c3)c2)CCN(C)C1 [Compound No. 70, 5-(3-(1H-pyrazol-4-yl)phenyl)-2,8-dimethyl-2,3,4,5-tetrahydro-1H-pyrido[4,3-b]indole]
89% | 11% | 87% | 66% | CNC(=O)c1ccc(-c2ccccc2-n2c3c(c4cc(C)ccc42)CN(C)CC3)cn1 [Compound No. 71, 5-(2-(2,8-dimethyl-3,4-dihydro-1H-pyrido[4,3-b]indol-5(2H)-yl)phenyl)-N-methylpicolinamide]
17% | 3% | 56% | 28% | CNC(=O)c1ccc(-c2ccccc2-n2c3c(c4cc(C)ccc42)CN(C)CC3)cc1 [Compound No. 72, 2′-(2,8-dimethyl-3,4-dihydro-1H-pyrido[4,3-b]indol-5(2H)-yl)-N-methylbiphenyl-4-carboxamide]
94% | 16% | 83% | 64% | CNC(=O)c1ccc(-c2cscc2-n2c3c(c4cc(C)ccc42)CN(C)CC3)cn1 [Compound No. 73]
70% | 38% | 18% | 41% | Cc1ccc2c(c1)c1c(n2-c2ccc3ccncc3c2)CCN(C)C1 [Compound No. 74, 5-(isoquinolin-7-yl)-2,8-dimethyl-2,3,4,5-tetrahydro-1H-pyrido[4,3-b]indole]
16% | 21% | 15% | 20% | CNC(=O)c1ccc(-c2cccc(-n3c4c(c5cc(C)ccc53)CN(C)CC4)c2)cn1 [Compound No. 75, 5-(3-(2,8-dimethyl-3,4-dihydro-1H-pyrido[4,3-b]indol-5(2H)-yl)phenyl)-N-methylpicolinamide]
